Measurements from patent publication US20060159727A1, “Prevention of Systemic Microbial Infection” (priority 2005, published 2006).

What was measured:
[1] = tested on: Salmonella enteriditis phage type VIII (SePT8); assay: Susceptibility test: paper disk zone of inhibition on inoculated agar plate; type: cell-based; conditions: paper disk impregnated with fixed concentration of test material, 2 days
Description: An agar plate was uniformly inoculated with salmonella and a paper disk impregnated with a fixed concentration of test material was placed on top of the agar surface. […] The bacteria used was Salmonella enteriditis phage type VIII (SePT8). The study was conducted for 2 days. A disk soaked in sterile water was used as control.

salmonella = assay: Concentration of salmonella in organs of challenged chicks fed test material; type: in vivo; conditions: chicks fed supplemented diet from hatch, sacrificed at 14 days
Description: Newly hatched chicks were fed a diet supplemented with the test materials, at 7 days of age, chicks were challenged 0.2 ml of a 2×10^9 salmonella culture. Chicks were sacrificed at 14 days of age (1 week after bacterial challenge), their organs dissected and cultured to determine bacterial counts.

E. coli = conditions: cited from earlier work

O=S(=O)([O-])[O-].[Cu+2] [Copper Sulfate]
Zone of Inhibition [1]: 1.444 mm
concentration of salmonella in Liver (salmonella; challenged at 7 days with 0.2 ml of 2×10^9 culture, liver): 11 cfu
concentration of salmonella in Ceca (salmonella; challenged at 7 days, ceca): 54 cfu
concentration of salmonella in Colon (salmonella; challenged at 7 days, colon): 74 cfu
concentration of salmonella in Duodenum (salmonella; challenged at 7 days, duodenum): 19 cfu
concentration of salmonella in Spleen (salmonella; challenged at 7 days, spleen): 10 cfu

Gentamycin
Zone of Inhibition [1]: 1.300 mm

CC(C)=CCCC(C)=CC=O [citral]
citral concentration in growth media that reduced the concentration of E. coli (E. coli): more than 0.01%
citral concentration with bactericidal effect (E. coli; growth media, E. coli): 0.08%
